Measured values published in article PMC8037310, “Thrombin-Derived Peptides Potentiate the Activity of Gram-Positive-Specific Antibiotics against Gram-Negative Bacteria” (Molecules, 2021).
Where “and” joins values, the source holds several entries; their conditions need not be identical. Equal entries are not always repeated. Peptide text beside a SMILES is read from it.

Tests used:
[1] = test system: E. coli EQASmcr-1 (EQAS 2016 412016126); format: cell-based, Escherichia coli
[2] = test system: E. coli EQASmcr-3 (EQAS 2017 2013-SQ352); format: cell-based, Escherichia coli
E. coli W3110 = format: cell-based, Escherichia coli
[3] = test system: E. coli EQASmcr-2 (EQAS 2016 KP37); format: cell-based, Escherichia coli
E. coli BW25113 [4] = format: cell-based, Escherichia coli
E. coli mcr-1 = format: cell-based, Escherichia coli
Procedure, shortened: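 Checkerboard of peptide serial dilutions against rifampicin concentrations in triplicate, in LB with 1.0 × 10^6 CFU/mL final inoculum after mixing the 2.0 × 10^6 CFU/mL stock 1:1, 20 h at 37 °C shaking. OD600 read; FICi = MSCa/MICa + MSCb/MICb, ≤0.5 taken as synergy.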

[5] = test system: defibrinated sheep blood (red blood cells); assay: Hemolysis assay; format: cell-based; details: 200 µg/mL compound, 20 h incubation at 37 °C with defibrinated sheep blood, PBS 0.002% Tween20, absorbance 415 nm, relative to 0.1% Triton X-100; n=3 technical replicates
Procedure, shortened: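 % hemolysis is supernatant absorbance at 415 nm, minus the buffer-only background, relative to 0.1% Triton X-100 lysis. Compound dilutions (200–1.56 µg/mL before adding cells) were incubated with an equal volume of red cells for 20 h at 37 °C and 500 rpm. Cells were washed and normalized in PBS/0.002% Tween20 to about 2.5 A415 at full lysis.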

K. pneumoniae ATCC13883 = assay: Checkerboard assay with rifampicin; format: cell-based, Klebsiella pneumoniae; details: K. pneumoniae ATCC13883
Procedure: (§1) All peptides were screened for antimicrobial activity against E. coli BW25113, E. coli ATCC25922, and E. coli W3110. A select group of the peptides was further tested against E. coli mcr-1, E. coli EQASmcr-1 (EQAS 2016 412016126), E. coli EQASmcr-2 (EQAS 2016 KP37), E. coli EQASmcr-3 (EQAS 2017 2013-SQ352), K. pneumoniae ATCC13883, P. aeruginosa ATCC27853, and A. baumannii ATCC17978. The antimicrobial assay was performed according to CLSI guidelines. Bacteria were plated out directly from their glycerol stocks on blood agar plates, incubated overnight at 37 °C, and then kept in the fridge. The blood agar plates were only used for 2 weeks and then replaced.
(§2) One colony from a blood agar plates was inoculated in Lysogeny Broth (LB) at 37 °C until a 0.5 optical density at 600 nm (OD600) was reached (compared to the sterility control of LB). The bacterial suspension was diluted in fresh LB to 2.0 × 10^6 CFU/mL. The serial dilutions were prepared in polypropylene microtiter plates: a stock of the test compounds was prepared with a 2x final concentration in LB. Moreover, 100 µL of the stock was added to the wells of the top row of which 50 µL was used for the serial dilution. The bottom row of each plate was used as the positive (50 µL of LB) and negative controls (100 µL of LB) (6 wells each). Furthermore, 50 µL of the 2.0 × 10^6 CFU/mL bacterial stock was added to each well except for the negative controls, adding up to a total volume of 100 µL per well. The plates were sealed with a breathable seal and incubated for 20 h at 37 °C and 600 rpm.
(§3) Two 96-well plates were required per compound. A serial dilution of the compound was performed on two plates from row A–G using with LB as medium. Row H was filled with 25 µL medium. On a separate plate a negative control (8 wells, 100 μL medium) was prepared. For all concentrations of antibiotic a specific stock was prepared. 25 µL medium was added to the 0 µg/mL antibiotic columns (plate I, column 1–3). Of each antibiotic stock 25 µL was added to three columns to obtain triplicates for every condition. Both plates contained 50 µL in each well to which 50 µL bacterial stock was added (see the protocol of the MIC assays) and the plates were sealed. After incubation for 20 h at 37 °C while shaking, the breathable seals were removed and the density of the bacterial suspensions measured at 600 nm (OD600) using a Tecan Spark plate reader. The OD600 values were transformed to a 2D gradient with the negative control as minimum and the positive control (wells G1, G2, and G3) as maximum in excel. The FICi was calculated using Equation (1) with a FICi ≤ 0.5 indicating synergy. FICi = (MSCa/MICa) + (MSCb/MICb),(1)
(§4) Calculation of the FICi: MSCa = concentration of the […] in combination with the antibiotic that results in the lowest FICi. MICa = MIC of the antibiotic without synergist (row G). MSCb = concentration of the synergist in combination with the antibiotic that results in the lowest FICi. MICb = MIC of the synergist itself (Column 1–3, plate I).

E. coli BW25113 [6] = assay: Checkerboard assay with erythromycin; format: cell-based, Escherichia coli
E. coli BW25113 [7] = assay: microbe, parasite or virus in culture; format: cell-based, Escherichia coli
Procedure: as §1, §2, §3, §4

Structure (SMILES): CC[C@H](C)[C@H](NC(=O)[C@@H](NC(=O)[C@H](CCCCN)NC(=O)[C@H](CCC(N)=O)NC(=O)[C@@H](NC(=O)[C@H](Cc1c[nH]c2ccccc12)NC(=O)[C@H](CCCCN)NC(=O)[C@H](CCCCN)NC(=O)[C@H](CC(C)C)NC(=O)[C@H](C)NC(=O)[C@H](Cc1ccccc1)NC(=O)[C@@H](N)C(C)C)[C@@H](C)CC)C(C)C)C(N)=O [peptide 10] (H-VFALKKWIQKVI-NH2)
- MICpeptide ([1]; peptide alone, E. coli EQASmcr-1): 200 µg/mL
- MSCpeptide ([1]; peptide concentration in the combination with rifampicin giving the lowest FICi, E. coli EQASmcr-1): 12.5 µg/mL
- MSCrif ([1]; rifampicin concentration in the combination giving the lowest FICi, E. coli EQASmcr-1): 0.125 µg/mL
- FICi ([1]; with rifampicin vs E. coli EQASmcr-1): 0.0781
- MICpeptide ([2]; peptide alone, E. coli EQASmcr-3): 200 µg/mL
- MSCpeptide ([2]; peptide concentration in the combination with rifampicin giving the lowest FICi, E. coli EQASmcr-3): 12.5 µg/mL
- MSCrif ([2]; rifampicin concentration in the combination giving the lowest FICi, E. coli EQASmcr-3): 0.125 µg/mL
- FICi ([2]; with rifampicin vs E. coli EQASmcr-3): 0.0781
- MICpeptide (E. coli W3110; peptide alone, E. coli W3110): 25 µg/mL
- MSCpeptide (E. coli W3110; peptide concentration in the combination with rifampicin giving the lowest FICi, E. coli W3110): 12.5 µg/mL
- MSCrif (E. coli W3110; rifampicin concentration in the combination giving the lowest FICi, E. coli W3110): 0.125 µg/mL
- FICi (E. coli W3110; with rifampicin vs E. coli W3110, synergy defined as FICi ≤ 0.5): > 0.5
- FICi ([3]; EQASmcr-2 (EQAS 2016 KP37, 20 h)): 0.1406
- MICpeptide ([3]; peptide alone, E. coli EQASmcr-2): 100 µg/mL
- MSCpeptide ([3]; peptide concentration in the combination with rifampicin giving the lowest FICi, E. coli EQASmcr-2): 12.5 µg/mL
- MSCrif ([3]; rifampicin concentration in the combination giving the lowest FICi, E. coli EQASmcr-2): 0.125 µg/mL
- MICpep (E. coli BW25113 [4]; synergist alone, E. coli BW25113, from checkerboard with rifampicin): 100 µg/mL
- MSCpep (E. coli BW25113 [4]; synergist concentration in the combination with rifampicin giving the lowest FICi, E. coli BW25113): 12.5 µg/mL
- MICpeptide (E. coli mcr-1; peptide alone, E. coli mcr-1): > 200 µg/mL
- MSCpeptide (E. coli mcr-1; peptide concentration in the combination with rifampicin giving the lowest FICi, E. coli mcr-1): 25 µg/mL
- MSCrif (E. coli mcr-1; rifampicin concentration in the combination giving the lowest FICi, E. coli mcr-1): 0.188 µg/mL
- FICi (E. coli mcr-1; with rifampicin vs E. coli mcr-1): 0.0781
- Hemolysis [5]: 3.8% and 4%
- MICpeptide (K. pneumoniae ATCC13883; peptide alone): > 200 µg/mL
- MSCpeptide (K. pneumoniae ATCC13883; peptide concentration in the combination with rifampicin giving the lowest FICi): 12.5 µg/mL
- MSCrif (K. pneumoniae ATCC13883; rifampicin concentration in the combination giving the lowest FICi): 1 µg/mL
- MSCery (E. coli BW25113 [6]; erythromycin concentration in the combination with the synergist giving the lowest FICi, E. coli BW25113): 3.125 µg/mL
- MIC of the peptide (MICpep) (E. coli BW25113 [6]; synergist alone, E. coli BW25113, LB, 20 h 37 °C, from checkerboard with erythromycin): 100 µg/mL
- MSCpeptide, minimum synergistic concentration (E. coli BW25113 [6]; synergist concentration in the combination with erythromycin giving the lowest FICi, E. coli BW25113, LB, 20 h 37 °C, OD600): 12.5 µg/mL
- FICi (E. coli BW25113 [7]; BW25113, 20 h): 0.1563
- MICpeptide (E. coli BW25113 [7]; synergist alone, E. coli BW25113, from checkerboard with vancomycin): 100 µg/mL
- MSCpeptide (E. coli BW25113 [7]; synergist concentration in the combination with vancomycin giving the lowest FICi, E. coli BW25113): 12.5 µg/mL
- MSCvanco (E. coli BW25113 [7]; vancomycin concentration in the combination giving the lowest FICi, E. coli BW25113): 12.5 µg/mL
